How the values were obtained:
HIGA mice = assay: Inhibition of decrease in renal function in IgA nephropathy mouse models (HIGA mice), blood urea nitrogen; format: in vivo; details: for blood urea nitrogen level (BUN), compared with the vehicle group: 10 mpk orally once a day for 6 weeks, FIG. 3, 10 mg/kg
Method: The present test was carried out, using HIGA mice that had been reported as mouse models of IgA nephropathy (Muso et al., Kidney International 1996 50: 1946-1957). A vehicle, a fumarate of Compound 1, or Ibrutinib (Comparative Example 1) was orally administered to 14-week-old to 16-week-old HIGA mice (Japan SLC, Inc.) once a day, continuously for 6 weeks. The control mice were not IgA nephropathy mouse models (HIGA mice), but were Balb/c mice (Japan SLC, Inc.) with the same age in weeks as described above. The vehicle was 0.5% HPMC. The daily doses were set as the following: the vehicle: 10 ml/kg, the fumarate of Compound 1: 10 mpk, and Ibrutinib: 30 mpk. […] Peripheral blood was collected from […], and the urea nitrogen level in the blood was measured. Using UREA NITROGEN (BUN) Colorimetric Detection Kit (Arbor Assays), the urea nitrogen level in the blood was measured.

[1] = AUC comparison of fumarate of Compound 1 and Ibrutinib; format: in vivo; details: fumarate of Compound 1 (1 mpk) compared with Ibrutinib (3 mpk)
mouse B cells = assay: Effect of inhibiting IgG production in mouse B cells; format: cell-based; details: CD43-negative B cells from BALB/c mouse spleen, anti-CD40 antibody and IL-4 stimulation, cultured 8 days, ELISA; FIG. 1
Method: The present test was carried out with reference to the Non-Patent literature (Castigli et al., J Allergy Clin Immunol 2007 120(4): 885-91). A CD43-negative B cell fraction was separated from the spleen collected from BALB/c mice, and was then suspended in a 10% FBS-containing RPMI1640 culture medium, to which an anti-CD40 antibody and IL-4 had been added. A fumarate of Compound 1 was serially diluted with DMSO, and was then added to a plate, at the same time as the seeding of the cells onto the plate. A 10% FBS-containing RPMI culture medium, to which neither an anti-CD40 antibody nor IL-4 had been added, was used as a control. DMSO, which was added to a plate at the same time as the seeding of the cells on the plate, was defined as a vehicle. The cells were cultured for 8 days at 37° C. in a CO2 incubator, and thereafter, a culture supernatant was recovered. Using an anti-IgG antibody ELISA kit (Thermo Fisher Scientific), the IgG concentration in the culture supernatant was measured.

[2] = system: Human monocytic cells THP-1; assay: Inhibition of TNFα cytokine production by IgG stimulation; format: cell-based; details: THP-1 cells on solid-phased human IgG, cultured 4 hours, ELISA; FIG. 2
Method: The present test was carried out with reference to the Non-Patent literature (Chang et al., Arthritis Res Ther 2011 13(4): R115). Human monocytic cells THP-1 suspended in a 10% FBS-containing RPMI1640 culture medium were seeded on a 96-well plate, on which human IgG had been solid-phased. A fumarate of Compound 1 was serially diluted with DMSO, and was then added to the plate, on which the cells had been seeded. The cells seeded into a well of the plate, in which IgG had not been solid-phased, were used as a control. DMSO, which was added to the plate at the same time as the seeding of the cells, was defined as a vehicle. The cells were cultured for 4 hours at 37° C. in a CO2 incubator, and thereafter, a culture supernatant was recovered. Using an anti-TNFα ELISA kit (R & D system), the concentration of TNFα in the culture supernatant was measured.

Compound	blood urea nitrogen level (BUN), compared with the vehicle group (HIGA mice)	blood urea nitrogen level (BUN), compared with Comparative Example 1 (Ibrutinib) (HIGA mice; fumarate of Compound 1 10 mpk vs Ibrutinib 30 mpk, orally once a day for 6 weeks, FIG. 3)	AUC values [1]	medicinal effects in HIGA mice (blood urea nitrogen level) (HIGA mice; orally once a day for 6 weeks, fumarate of Compound 1 10 mpk, Ibrutinib 30 mpk)	IgG concentration in the culture supernatant (IgG production) (mouse B cells)	concentration of TNFα in the culture supernatant (TNFα production) [2]
C=CC(=O)N1CCC[C@@H](n2nc(C(=O)Nc3nc4ccccc4o3)c3c(N)ncnc32)C1 [fumarate of Compound 1, (R)-1-(1-acryloylpiperidin-3-yl)-4-amino-N-(benzo[d]oxazol-2-yl)-1H-pyrazolo[3,4-d]pyrimidine-3-carboxamide]	inhibits an increase in the blood urea nitrogen level	significantly reduces the blood urea nitrogen level	equivalent AUC values			
C=CC(=O)N1CCC[C@@H](n2nc(-c3ccc(Oc4ccccc4)cc3)c3c(N)ncnc32)C1 [Ibrutinib, reference compound]			equivalent AUC values			
C=CC(=O)N1CCC[C@@H](n2nc(C(=O)Nc3nc4ccccc4o3)c3c(N)ncnc32)C1 [Compound 1, (R)-1-(1-acryloylpiperidin-3-yl)-4-amino-N-(benzo[d]oxazol-2-yl)-1H-pyrazolo[3,4-d]pyrimidine-3-carboxamide]	significantly reduce the blood urea nitrogen level (BUN)			exhibited excellent medicinal effects	inhibited IgG production in a dose-dependent manner	inhibited TNFα production in a dose-dependent manner

Source: US20230064254A1, “THERAPEUTIC AGENT CONTAINING FUSED PYRIMIDINE COMPOUND AS ACTIVE INGREDIENT” (TAIHO PHARMACEUTICAL CO., LTD., priority 2019, published 2023)
